Activity and Km data for twelve molecules are collected here from ChEMBL document CHEMBL2074136, “Citrus juices inhibit the function of human organic anion-transporting polypeptide OATP-B” (Drug Metab Dispos, 2005).

Common to all, as to assay type: functional, cell-based
Series [1] has as its target T1, Solute carrier organic anion transporter family member 2B1 (Homo sapiens, UniProt O94956).
T1 sequence (O94956 whole entry): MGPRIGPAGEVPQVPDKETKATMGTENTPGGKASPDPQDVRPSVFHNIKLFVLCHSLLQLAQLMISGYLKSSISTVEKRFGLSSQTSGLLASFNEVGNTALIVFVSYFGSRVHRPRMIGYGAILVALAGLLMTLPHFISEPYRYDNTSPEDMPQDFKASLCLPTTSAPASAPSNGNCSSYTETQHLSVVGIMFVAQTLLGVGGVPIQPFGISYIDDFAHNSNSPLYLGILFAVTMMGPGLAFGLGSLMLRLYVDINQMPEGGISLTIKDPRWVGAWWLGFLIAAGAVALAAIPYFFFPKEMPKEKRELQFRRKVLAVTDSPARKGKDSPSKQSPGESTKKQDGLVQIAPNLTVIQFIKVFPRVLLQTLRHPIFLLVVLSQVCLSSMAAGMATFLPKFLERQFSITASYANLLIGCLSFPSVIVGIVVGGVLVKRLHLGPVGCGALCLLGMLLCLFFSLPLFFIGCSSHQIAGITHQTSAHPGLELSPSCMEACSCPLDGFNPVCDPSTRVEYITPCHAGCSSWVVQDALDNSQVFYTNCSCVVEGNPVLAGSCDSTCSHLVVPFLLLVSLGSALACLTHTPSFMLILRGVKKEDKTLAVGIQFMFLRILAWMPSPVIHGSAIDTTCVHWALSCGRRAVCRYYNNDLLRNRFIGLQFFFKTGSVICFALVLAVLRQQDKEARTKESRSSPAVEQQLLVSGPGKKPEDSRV
Kind of series: TP_TRANSPORTER: inhibition of glibenclamide uptake (glibenclamide: 10nM) in OATP2B1-expressing HEK293 cells. Set-up: scale not given: the % may be the effect or the level left.

The target of another series is T2, OATP2B1 (Homo sapiens, UniProt O94956).
T2 sequence (O94956 whole entry): T1 sequence (O94956 whole entry)
As to the kind of experiment: (§1) TP_TRANSPORTER: inhibition of Estrone-3-sulfate uptake (Estrone-3-sulfate: 10nM) in OATP2B1-expressing HEK293 cells. Set-up: scale not given: the % may be the effect or the level left. The note with it: HEK293 cells expressing OATP2B1, probe Estrone-3-sulfate (10 nM).

In series [2] the target is T1, Solute carrier organic anion transporter family member 2B1. The series is described as §1. Also on record: scale not given: the % may be the effect or the level left. The note with it: hek293.
For series [3] the target is unchanged. Kind of series: TP_TRANSPORTER: uptake of DHEAS at a concentration of 17.4nM in OATP2B1-expressing HEK293 cells.
Substrate in series [4]: COc1ccc(Cl)cc1C(=O)NCCc1ccc(S(=O)(=O)NC(=O)NC2CCCCC2)cc1
As to the kind of experiment: (§2) TP_TRANSPORTER: uptake in OATP2B1-expressing HEK293 cells.

Substrate in series [5]: C[C@]12CC[C@@H]3c4ccc(OS(=O)(=O)O)cc4CC[C@H]3[C@@H]1CCC2=O
The series is described as §2.

In the case of `C[C@@H]1O[C@@H](O[C@H]2[C@H](Oc3cc(O)c4c(c3)O[C@H](c3ccc(O)cc3)CC4=O)O[C@H](CO)[C@@H](O)[C@@H]2O)[C@H](O)[C@H](O)[C@H]1O` [NARINGIN], the Activity amounted to 70% in series [1] and 61% on OATP2B1.
On to `C/C(=C\COc1c2ccoc2cc2oc(=O)ccc12)CCC(O)C(C)(C)O` (stereo not drawn) [DIHYDROXYBERGAMOTTIN], for which the values for the Activity (in series [1]; at OATP2B1) were 35% and 58%, respectively.
For `O=C1C[C@@H](c2ccc(O)cc2)Oc2cc(O)cc(O)c21` [NARINGENIN], in that order: 45% and 72%.
Regarding `O=c1c(O)c(-c2ccc(O)c(O)c2)oc2cc(O)cc(O)c12` [QUERCETIN], the Activity result in series [1] is “is not an inhibitor [(-)]”; at OATP2B1, 80%.
Take `COc1ccc(-c2cc(=O)c3c(OC)c(OC)c(OC)c(OC)c3o2)cc1OC` [NOBILETIN]: the results for the Activity (in series [1]; on OATP2B1) were 58% and 40%, respectively.
In the case of `CC(C)=CCC/C(C)=C/COc1c2ccoc2cc2oc(=O)ccc12` [BERGAMOTTIN], the results for the Activity result (in series [1]; on OATP2B1) were “is not an inhibitor [(-)]” and 40%, respectively.
Turning to GRAPEFRUIT JUICE, the Activity in series [1] turned out to be 38%; in series [2], 18%.
`C[C@]12CC[C@H](OS(=O)(=O)O)CC1=CC[C@@H]1[C@@H]2CC[C@]2(C)C(=O)CC[C@@H]12` [PRASTERONE SULFURIC ACID]: the Activity entry in series [3] was “substrate [+]”.
With APPLE JUICE, the Activity result was “is not an inhibitor [(-)]” in series [1] and 89% in series [2].
For ORANGE JUICE, in that order: 50% and 45%.
Take `COc1ccc(-c2cc(=O)c3c(OC)c(OC)c(OC)c(OC)c3o2)cc1` [TANGERETIN]: the figures for the Activity (in series [1]; at OATP2B1) were 25% and 89%, respectively.

B1: Solute carrier organic anion transporter family member 2B1 (Homo sapiens) (protein)
chain: T1 sequence (O94956 whole entry)
In the case of B1, the Km (commonly the substrate concentration at which the rate is half of its maximum) in series [4] came out at 6.26 µM; in series [5], 7.14 µM.
